Values quoted from earlier work as cited in patent US6365128B1, “Monitoring gastrointestinal function to guide care of high risk patients” (Medical Defence Technologies, LLC, priority 1998, dated 2002).

Conditions: in vivo

CSCC[C@H](NC(=O)[C@H](Cc1c[nH]c2ccccc12)NC(=O)CCNC(=O)OC(C)(C)C)C(=O)N[C@@H](CC(=O)O)C(=O)N[C@@H](Cc1ccccc1)C(N)=O [Pentagastrin, pentagastrin]
half life: approximately 10 minutes
